For one test, the system named is OVA-induced AHR. Put plainly: OVA-induced model of airway hyperreactivity (AHR). As to conditions: for number of cells (eosinophils, lymphocytes, macrophages) in BAL fluid: versus OVA-immunized control group, BAL 3 h after airway measurements (FIG. 2D); for histological examination of H&E-stained lung sections: OVA-immunized mice, compared with saline (negative) control (data not shown); for development of methacholine-induced AHR (PenH, whole-body plethysmograph): single dose 250 μg i.v., 1 day before OVA challenge, OVA-immunized mice (FIG. 2B). Format: in vivo, BALB/c mice. The procedure: DPPE (250 μg) was injected i.v. on day 8 and AHR was measured on day 12. Reagents. Anti-CD3 mAb was purchased from BD PharMingen (San Diego, Calif.). α-Galactosylceramide (α-[…]7000) was purchased from Axxora LLC (San Diego, Calif.). DPPE-PEG. (1,2-Dipalmitoyl-sn-Glycero-3-Phosphoethanolamine-N-[Methoxy(Polyethylene glycol)-350]) (Ammonium Salt) (PEG350) was purchased from Avanti Polar Lipids, INC (Alabaster, Ala.). We thank A. Bendelac for the DN32.D3 hybridoma cells. To induce AHR, mice were immunized intraperitoneally with 50 μg of LPS free OVA (Worthington Biochemical Corp., NJ) in 2 mg of alum in volume of 0.5 ml. Ten days later mice were lightly anesthetized with methoxoflurane and challenged with i.n. OVA (50 μg) on 3 consecutive days. Induction of AHR and measurement of airway responsiveness-AHR responses were assessed by methacholine-induced airflow obstruction in conscious mice placed in a whole-body plethysmograph (Buxco Electronics, Troy, N.Y.) as described previously 15. In some experiments AHR was assessed by invasive measurement of airway resistance, in which anesthetized and tracheostomized mice were mechanically ventilated using a modified version of a described method 36. Aerosolized methacholine was administered for 20 breaths in increasing concentrations (1.25, 2.5, 5 and 10 mg/ml of methacholine). We continuously computed RL and Cdyn by fitting flow, volume and pressure to an equation of motion. Collection and analysis of BAL fluid-Mice were lethally anesthetized with phenobarbital 450 mg/kg i.p. The trachea was cannulated and the lungs were lavaged three times with 0.3 ml of PBS, and the collected fluid was pooled. Cell counts and analysis of the BAL was performed as described (15). […] In this model, an asthma-like phenotype with AHR, eosinophilic airway inflammation and mucus hypersecretion is induced by systemic sensitization with OVA followed by intrapulmonary challenge with OVA (FIG. 2A).

The subject of test [1] is OVA-specific Th2 responses. Put plainly: Restimulation of bronchial lymph node cells of treated mice with OVA in vitro, cytokine ELISA. Format: in vivo, BALB/c mice. The method, then: Bronchial lymph nodes were removed from Peg treated or PBS treated mice and restimulated with 100 μg of OVA in vitro. After 72 hrs supernatants were collected and cytokine production analyzed by ELISA. ELISA data are representative of three separate experiments (n=4) and are shown as mean±SD for triplicate samples. Restimulation of lymph node cells in vitro. Cells isolated from lymph nodes of OVA-primed mice were restimulated in vitro (5×10^5 cells per well in a 96-well plate) with various concentrations of OVA. Supernatants were collected after 4 days and assayed for IL-4 and IFN-γ by ELISA as previously described (15). Cytokine ELISAs—Cytokine secretion following in vitro challenge with OVA and control peptides were determined by ELISA as described before (15). Briefly, the following monoclonal antibodies R4-6A2 and XMG1.2-biotin for IFN-γ and 11B11 and BVD6-24G2-biotin for IL-4 were used for capture and detection. […] Bronchial lymph nodes were removed from Peg treated or PBS treated mice and restimulated with 100 μg of OVA in vitro. After 72 hrs supernatants were collected and cytokine production analyzed by ELISA. ELISA data are representative of three separate experiments (n=4) and are shown as mean±SD for triplicate samples. Since treatment with DPPE-PEG350 inhibited the development of AHR, we next asked if administration of the CD1d-dependent antagonist prior to airway challenge altered systemic OVA-specific Th2 responses. Bronchial lymph node cells were isolated from OVA sensitized mice treated with either DPPE-PEG350 or PBS, and restimulated in vitro with 100 μg/ml of ovalbumin a day after induction of AHR. […] No OVA-specific cytokine secretion was seen if the animals had not been sensitized with OVA on day 0 (data not shown).
For orientation: An ELISA detects its analyte on a solid surface through an enzyme-linked reagent.

For a further test, the system named is CD1d. As to conditions: references 2-5; cited from earlier work.
In test [2] the test system is α-GalCer-stimulated iNKT cells. In words: Inhibition of in vitro iNKT activation: splenocytes stimulated with α-GalCer, cytokine ELISA. It is filed as cell-based, BALB/cJ mice. The procedure:
(§1) FIGS. 1A and 1B show splenocyte cells (5×10^6/ml) pooled from BALB/cJ mice (n=4) that were cultured in anti-CD3 mAb (2 μg/ml)-precoated 24-well plates in complete RPMI±increasing concentrations of DPPE-PEG350, or that were cultured in 24-well plates in complete RPMI±α-GalCer (100 ng/ml)±increasing concentrations of DPPE-PEG350. After 48 h, supernatants were gathered and examined for IL-4 and INF-γ by ELISA. ELISA data are representative of three separate experiments each and are shown as mean±SD for triplicate samples.
(§2) Inhibition of in vitro iNKT activation with DPPE-PEG-Splenocytes cells (5×10^6/ml) pooled from BALB/cJ mice (n=4) were cultured in anti-CD3 mAb (2 μg/ml)-precoated 24-well plates in complete RPMI±increasing concentrations of DPPE-PEG350, or cultured in 24-well plates in complete RPMI±KRN7000 (100 ng/ml)±increasing concentrations of DPPE-PEG350. After 48 h, supernatants were gathered and examined for IL-4 and INF-γ by ELISA as described (35).
(§3) Phosphatidylethanolamine and DPPE-PEG bind to CD1d and prevent iNKT cell activation (2-5). To determine whether activation of iNKT cells by α-GalCer could specifically be inhibited by DPPE-PEG, splenocytes were incubated with α-GalCer (100 ng/ml) or plate-bound anti-CD3. […] Culture supernatants were collected and IL-2 expression expression analyzed with IL-2 dependant cell line CTLL-2. […]

Test [3] concerns anti-CD3 activated T cells. Put plainly: Splenocytes cultured on plate-bound anti-CD3 mAb, cytokine ELISA. The note with it: plate-bound anti-CD3 2 μg/ml, at concentrations that significantly inhibited α-GalCer-stimulated secretion. Format: cell-based, BALB/cJ mice. The method, then:
as §1, §2, §3

Test [4] relates to iNKT cell hybridoma line DN32. Put plainly: DN32 NKT hybridoma activation by α-GalCer, IL-2 release read with CTLL-2 cells. It is filed as cell-based. As to conditions: 200 μg/ml for 4 hours, then titrating α-GalCer 48 h; particularly at suboptimal α-GalCer (FIG. 1C). The procedure: Culture supernatants were collected and IL-2 expression expression analyzed with IL-2 dependant cell line CTLL-2. Data are means±SD of triplicate cultures.
as §1, with “Phosphatidylethanolamine and DPPE-PEG bind to CD1d and prevent iNKT cell activation (2-5). To determine whether activation of iNKT cells by α-GalCer could specifically be inhibited by DPPE-PEG, splenocytes were incubated with α-GalCer (100 ng/ml) or plate-bound anti-CD3. […] FIGS.” for “FIGS.”, “samples. […] Culture supernatants were collected and IL-2 expression expression analyzed with IL-2 dependant cell line CTLL-2. Data are means±SD of triplicate cultures.” for “samples.”
We also tested the ability of DPPE-PEG350 to block the iNKT cell hybridoma line DN32, activation by α-GalCer. DN32 cells were loaded with 200 μg/ml of DPPE-PEG, and stimulated with titrating dose of α-GalCer. […]

The test system of the next test is iNKT cell. The note with it: references 2-5; cited from earlier work.
Test [5] deals with contact hypersensitivity (CHS). As to conditions: Nieuwenhuis et al.; cited from earlier work.
[6] abbreviates: bronchial lymph node cells, 100 μg/ml ovalbumin, versus PBS treated group (FIG. 3).

Regarding `CCCCCCCCCCCCCCCC(=O)OC[C@H](COP(=O)(O)OCCN)OC(=O)CCCCCCCCCCCCCCC` [DPPE, 1,2-Dipalmitoyl-sn-Glycero-3-Phosphoethanolamine], in the test on OVA-induced AHR (250 μg i.v.), the “number of cells (eosinophils, lymphocytes, macrophages) in BAL fluid” value is “almost completely abrogated”. Further, in the test with OVA-induced AHR, the “histological examination of H&E-stained lung sections” value is “minimal mucus production and negligible cellular infiltration”; the “development of methacholine-induced AHR (PenH, whole-body plethysmograph)” value is “completely inhibited”. In test [1] (bronchial lymph nodes restimulated with 100 μg of OVA, 72 hrs (FIG. 3)), the “development of OVA specific Th2 responses” value is reported as “does not inhibit”.

With “1,2-Dipalmitoyl-sn-Glycero-3-Phosphoethanolamine-N-[Methoxy(Polyethylene glycol)-350] [DPPE-PEG350]”, in the test on CD1d, the “binding to CD1d” value is recorded as “bind”. Further, the “secretion of IL-4 by α-GalCer-stimulated iNKT cells” value in test [2] (splenocytes, α-GalCer 100 ng/ml, increasing concentrations of DPPE-PEG, 48 h, ELISA (FIG. 1A/1B)) is on record as “inhibited”. The “iNKT cells cytokine release compared to anti-CD3 activated T cells (preference)” value in test [2] (α-GalCer-stimulated versus anti-CD3-stimulated splenocytes (FIGS. 1A and B)) is “preferentially inhibited”. For the same molecule, the “cytokine production by anti-CD3 activated T cells” value in test [3] was “no or minimal effect”. Also, in the test on OVA-induced AHR (250 μg i.v., anesthetized, tracheostomized, mechanically ventilated mice (FIG. 2C)), the “AHR by direct measurement of airway resistance (RL) and dynamic compliance (Cdyn)” value is “confirmed”. Besides, the “number of cells (eosinophils, lymphocytes, macrophages) in BAL fluid” value in the test on OVA-induced AHR (250 μg i.v.) is “significantly reducing”. In the test on OVA-induced AHR, the “histological examination of H&E-stained lung sections” value was “no significant differences” and the “development of methacholine-induced AHR (PenH, whole-body plethysmograph)” value is “completely prevented”. Moreover, the “IL-2 release from DN32 iNKT cells” value in test [4] was “inhibited”. Moreover, in test [1] (setting [6]), the “IL-4 secretion to OVA recall” value is reported as “No significant difference”, the “IL-5 secretion to OVA recall” value is reported as “No significant difference” and the “IL-13 secretion to OVA recall” value was “No significant difference”. For the same molecule, the “ova-specific secretion of IFN-γ after in vitro re-challenge” value in test [1] (sensitized and DPPE-PEG treated animals) is recorded as “did not affect”. Moreover, the iNKT cell activation entry in the test on iNKT cell is “prevent”. The “dermatitis in the CHS model” value in test [5] is “blocked”.

Turning to “Phosphatidylethanolamine [reference compound]”, the “binding to CD1d” value in the test with CD1d is “bind”. Also, the iNKT cell activation result in the test with iNKT cell is “prevent”.

(Values after patent US20100035843A1, “METHODS FOR ATTENUATING ALLERGEN-INDUCED AIRWAY HYPERREACTIVITY USING CD1D DEPENDENT ANTAGONISTS” (THE GENERAL HOSPITAL CORPORATION, priority 2007, published 2010).)
